Data as given in patent US20240051978A1, “3-CYCLIC AMINE-INDOLE DERIVATIVES AS SEROTONERGIC AGENTS FOR THE TREATMENT OF CNS DISORDERS” (MINDSET PHARMA INC., priority 2020, published 2024).
Where two headings read alike, the source gives them in different places.

Key:
[1] = cited from earlier work
[2] = biological target: human 5-HT2A (h5-HT2A) receptor (Homo sapiens (Human), UniProt P28223); assay: FLIPR assay, human 5-HT2A receptor under agonist mode; format: cell-based; settings: FLIPR calcium
Description: I. Assessment of the Activated Effect of Exemplary Compounds of Formula I Targeting on Human 5-HT2A (h5-HT2A) Receptor Under Agonist Mode:
1. the Cells were cultured in cell culture medium (DMEM containing 10% FBS 1×penicillin-streptomycin 300 μg/ml G418 and 100 μg/ml hygromycin B) at 37° C., 5% (v/v) CO2.
2. One day before the assays, the cells were detached using TrypLE™ Express and cells were counted using cell counter.
3. 20000 cells/well were seeded in 30 μl/well culture medium to a 384-well cell plate and the cells were incubated overnight at 37° C., 5% (v/v) CO2.
4. On the assay day, 2× dye solution was prepared following the manual of the FLIPR® Calcium 6 Assay Kit: i. The dye was diluted with assay buffer(20 mM HEPES in 1×HBSS, PH7.4); ii. Probenecid was added to the final concentration of 5 mM; iii. Vortex vigorously for 1-2 minutes.
5. Medium was removed from cell plate by flicking the cell plate on towel papers.
6. 10 μl of assay buffer and 10 μl of 2× dye solution was added to each well of the cell plate.
7. The cell plate was placed on plate shaker, and the plate was agitated at 600 rpm for 2 minutes. The plate was incubated at 37° C. for 2 hours followed by additional 15-minute incubation at 25° C.
8. 3× compound in assay buffer was prepared: a. reference compounds were diluted to required concentration with DMSO. Compounds were added to a 384-well compound plate; b. Serial dilutions were performed; c. 10 mM test compounds were added to the compound plate, 3-fold serial dilutions were performed. d. […] 20 μl/well assay buffer was added to the compound plate; f. The plate was mixed on plate shaker for 2 mins;
i. The normalized fluorescence reading (RFU) was calculated as shown below, wherein Fmax and Fmin stand for maximum and minimum of calcium signal during defined time window: RFU=Fmax−Fmin
ii. The percentage activation was calculated by using following equation: […]
iii. EC50 was calculated by fitting % activation against log of compound concentrations with Hill equation using XLfit.

human 5-HT2A receptor = human 5-HT2A receptor (Homo sapiens (Human), UniProt P28223); assay: Radioligand binding assay ([3H]-ketanserin) on human 5-HT2A receptor; settings: [3H]-ketanserin competition; read-out: h5-HT2A IC50
Description: • i. The assay buffer was prepared following the table below;
• ii. 8 doses of reference and exemplary test compounds were prepared starting from 10 mM stock solution as requested by 5-fold serial dilutions with 100%; • iii. (v/v) DMSO was prepared: a. 50 μl/well of 0.5% (v/v) PEI was added to UniFilter-96 GF/B plates. The plates were sealed and incubates at 4° C. for 3 hrs; b. After incubation, the plates were washed 3 times with ice-cold wash buffer (50 mM Tris, pH7.4); • iv. Preparation of assay plates: a. Cell membrane was diluted with assay buffer and 330 μl/well was added to 96 round deep well plates to reach a concentration of 20 μg/well; b. 8 concentrations of reference or exemplary test compounds were prepared and added 110 μl/well to 96 round deep well plates; c. [3H]-ketanserin was diluted with assay buffer to 5 nM (5× final concentration) and added 110 μl/well to 96 round deep well plates. • v. The plate were centrifuged at 1000 rpm for 30 secs and then agitated at 600 rpm, R.T. for 5 min. • vi. The plates were sealed and incubated at 27° C. for 90 min. • vii. The incubation was stopped by vacuum filtration onto GF/B filter plates followed by 4 times washing with ice-cold wash buffer (50 mM Tris, pH7.4). • vii. […] The filter plates were sealed and 40 μl/well of scintillation cocktail added. • x. The plate was read by using a Microbeta2 microplate counter.
For reference and exemplary test compounds, the results are expressed as % Inhibition, using the normalization equation: N=100−100×(U−C2)/(C1−C2), where U is the unknown value, C1 is the average of high controls, and C2 is the average of low controls. The IC50 was determined by fitting percentage of inhibition as a function of compound concentrations with Hill equation using XLfit.

[3] = Liver microsomes stability, human; settings: for Predicted hepatic CL: Human liver microsomes, with NADPH; for Remaining Percentage (%) 0 min / Remaining Percentage (%) 60 min: Human; for CLint scaled at 2 μM / half-life at 2 μM / microsomal CLint at 2 μM: human, microsomes
Description: (§1) The objective of this study was to estimate in vitro metabolic stability of 1-12 in pooled human and male mouse liver microsomes. The concentrations of parent compounds in reaction systems were evaluated by LC-MS/MS for estimating the stability in pooled human and male mouse liver microsomes. The in vitro intrinsic clearances of test compounds were determined as well.
(§2) A master solution in the “Incubation Plate” containing phosphate buffer, ultra-pure H2O, MgCl2 solution and liver microsomes was made according to Table 3. The mixture was pre-warmed at 37° C. water bath for 5 minutes.
(§3) 40 μL of 10 mM NADPH solution was added to each well. The final concentration of NADPH was 1 mM. The negative control samples were prepared by replacing NADPH with 40 μL of ultra-pure H2O. Samples were prepared in duplicate. Negative controls were prepared in singlet.
(§4) The reaction was started with the addition of 4 μL of 200 μM exemplary test compounds or control compounds to each master solution to get the final concentration of 2 μM. This study was performed in duplicate.
(§5) Aliquots of 50 μL were taken from the reaction solution at 0, 15, 30, 45 and 60 minutes. The reaction solutions were stopped by the addition of 4 volumes of cold methanol with IS (100 nM alprazolam, 200 nM imipramine, 200 nM labetalol and 2 μM ketoprofen). Samples were centrifuged at 3,220 g for 40 minutes. Aliquot of 90 μL of the supernatant was mixed with 90 μL of ultra-pure H2O and then was used for LC-MS/MS analysis.
(§6) LC/MS analysis was performed for all samples from this study using a Shimadzu liquid chromatograph separation system equipped with degasser DUG-20A5R; solvent delivery unit LC-30AD; system controller SIL-30AC; column oven CTO-30A; CTC Analytics HTC PAL System; Mass spectrometric analysis was performed using an Triple Quad™ 5500 instrument.
(§7) All calculations were carried out using Microsoft Excel. Peak area ratios of test compound to internal standard (listed in the below table) were determined from extracted ion chromatograms.
(§8) All calculations were carried out using Microsoft Excel. Peak areas were determined from extracted ion chromatograms. The slope value, k, was determined by linear regression of the natural logarithm of the remaining percentage of the parent drug vs. incubation time curve.
(§9) The in vitro half-life (in vitro t½) was determined from the slope value:
(§10) Conversion of the in vitro t½ (min) into the in vitro intrinsic clearance (in vitro CLint, in μL/min/mg proteins) was done using the following equation (mean of duplicate determinations): […]

[4] = Liver microsomes stability, rat; settings: for Predicted hepatic CL: Rat liver microsomes, with NADPH; for Remaining Percentage (%) 0 min / Remaining Percentage (%) 60 min: Rat; for CLint scaled at 2 μM / half-life at 2 μM / microsomal CLint at 2 μM: rat, microsomes
Description: as §1, §2, §3, §4, §5, §6, §7, §8, §9, §10

[5] = Liver microsomes stability, mouse; settings: for Predicted hepatic CL: Mouse liver microsomes, with NADPH; for Remaining Percentage (%) 0 min / Remaining Percentage (%) 60 min: Mouse; for CLint scaled at 2 μM / half-life at 2 μM / microsomal CLint at 2 μM: male, mouse, microsomes
Description: as §1, §2, §3, §4, §5, §6, §7, §8, §9, §10

Row | SMILES | EC50 [2] | IC50 (human 5-HT2A receptor) | Predicted hepatic CL [3] | Remaining Percentage (%) 0 min ([3]; With NADPH) | Remaining Percentage (%) 60 min ([3]; With NADPH) | Remaining Percentage (%) 0 min ([3]; Without NADPH) | Remaining Percentage (%) 60 min ([3]; Without NADPH) | CLint scaled at 2 μM [3] | half-life at 2 μM [3] | microsomal CLint at 2 μM [3] | Predicted hepatic CL [4] | Remaining Percentage (%) 0 min ([4]; With NADPH) | Remaining Percentage (%) 60 min ([4]; With NADPH) | Remaining Percentage (%) 0 min ([4]; Without NADPH) | Remaining Percentage (%) 60 min ([4]; Without NADPH) | CLint scaled at 2 μM [4] | half-life at 2 μM [4] | microsomal CLint at 2 μM [4] | Predicted hepatic CL [5] | Remaining Percentage (%) 0 min ([5]; With NADPH) | other results
1 | CN(C)CCc1c[nH]c2cccc(OP(=O)(O)O)c12 [Psilocybin, 4-phosphoryloxy-N,N-dimethyltrypatmine] | – | – | – | – | – | – | – | – | – | – | – | – | – | – | – | – | – | – | – | – | abstinence rate ([1]; 12 months follow-up): 67%; abstinence rate ([1]; six months follow-up): 80%
2 | [2H]C1([2H])CC(c2c[nH]c3cccc(OCc4ccccc4)c23)C([2H])([2H])N1C (single isomer, unassigned) [Compound I-37, 4-(benzyloxy)-3-(1-methylpyrrolidin-3-yl-2,2,5,5-d4)-1H-indole] | > 10 µM | < 1 µM | 9.50 mL/min/kg | 100.00% | 65.70% | 100.00% | 99.55% | 17.6 mL/min/kg | 99 min | 14 µL/min/mg | 26.15 mL/min/kg | 100.00% | 43.53% | 100.00% | 101.84% | 49.7 mL/min/kg | 50 min | 27.7 µL/min/mg | 55.10 mL/min/kg | 100.00% | Remaining Percentage (%) 60 min ([5]; With NADPH): 37.75%; Remaining Percentage (%) 0 min ([5]; Without NADPH): 100.00%; Remaining Percentage (%) 60 min ([5]; Without NADPH): 93.26%; CLint scaled at 2 μM [5]: 142 mL/min/kg; half-life at 2 μM [5]: 42.7 min; microsomal CLint at 2 μM [5]: 32.5 µL/min/mg
3 | [2H]C([2H])N1CCC(c2c[nH]c3cccc(O)c23)C1 (centres unmarked) [Compound I-32, 3-(1-(methyl-d2)pyrrolidin-3-yl)-1H-indol-4-ol] | < 1 µM | 1 to 10 µM | 3.99 mL/min/kg | 100.00% | 88.84% | 100.00% | 96.34% | 4.95 mL/min/kg | 351 min | 3.94 µL/min/mg | 0.96 mL/min/kg | 100.00% | 98.37% | 100.00% | 92.79% | 0.98 mL/min/kg | 2530 min | 0.55 µL/min/mg | 18.85 mL/min/kg | 100.00% | Remaining Percentage (%) 60 min ([5]; With NADPH): 84.91%; Remaining Percentage (%) 0 min ([5]; Without NADPH): 100.00%; Remaining Percentage (%) 60 min ([5]; Without NADPH): 116.03%; CLint scaled at 2 μM [5]: 23.9 mL/min/kg; half-life at 2 μM [5]: 254 min; microsomal CLint at 2 μM [5]: 5.45 µL/min/mg
4 | [2H]C([2H])N1CCC(c2c[nH]c3cccc(OCc4ccccc4)c23)C1 (single isomer, unassigned) [Compound I-36, 4-(benzyloxy)-3-(1-(methyl-d2)pyrrolidin-3-yl)-1H-indole] | > 10 µM | > 10 µM | 12.51 mL/min/kg | 100.00% | 46.97% | 100.00% | 112.84% | 31.6 mL/min/kg | 55 min | 25.2 µL/min/mg | 33.57 mL/min/kg | 100.00% | 23.82% | 100.00% | 95.23% | 85.7 mL/min/kg | 29 min | 47.8 µL/min/mg | 74.95 mL/min/kg | 100.00% | Remaining Percentage (%) 60 min ([5]; With NADPH): 4.62%; Remaining Percentage (%) 0 min ([5]; Without NADPH): 100.00%; Remaining Percentage (%) 60 min ([5]; Without NADPH): 101.31%; CLint scaled at 2 μM [5]: 448 mL/min/kg; half-life at 2 μM [5]: 13.5 min; microsomal CLint at 2 μM [5]: 102 µL/min/mg
